Reference: ChEMBL document CHEMBL4414679, “Discovery of 4,6-pyrimidinediamine derivatives as novel dual EGFR/FGFR inhibitors aimed EGFR/FGFR1-positive NSCLC” (Eur J Med Chem, 2020)
Activity calls are given as the source filed them. No cut-off for these calls is given here.

How the values were obtained:
[1] = tested on: PC-9; assay: Antiproliferative activity against human PC9 cells assessed as inhibition of cell growth at 10 uM incubated for 48 hrs by MTT assay relative to control; type: functional; details: PC-9, 48 h
[2] = biological target: T1, Epidermal growth factor receptor (Homo sapiens, UniProt P00533); assay: Inhibition of EGFR in gefitinib-insensitive human HCC827GR cells assessed as reduction in EGF-induced EGFR phosphorylation upto 10 uM measured after 2 hrs by western blot analysis
[3] = biological target: T2, Fibroblast growth factor receptor 1 (Homo sapiens, UniProt P11362); assay: Inhibition of N-terminal GST-tagged human FGFR1 expressed in baculovirus at 10 uM using FAM-labelled peptide as substrate pre-incubated for 10 mins followed by substrate addition by mobility shift assay relative to control
Target sequence in this assay (P11362 22-822 limits assumed): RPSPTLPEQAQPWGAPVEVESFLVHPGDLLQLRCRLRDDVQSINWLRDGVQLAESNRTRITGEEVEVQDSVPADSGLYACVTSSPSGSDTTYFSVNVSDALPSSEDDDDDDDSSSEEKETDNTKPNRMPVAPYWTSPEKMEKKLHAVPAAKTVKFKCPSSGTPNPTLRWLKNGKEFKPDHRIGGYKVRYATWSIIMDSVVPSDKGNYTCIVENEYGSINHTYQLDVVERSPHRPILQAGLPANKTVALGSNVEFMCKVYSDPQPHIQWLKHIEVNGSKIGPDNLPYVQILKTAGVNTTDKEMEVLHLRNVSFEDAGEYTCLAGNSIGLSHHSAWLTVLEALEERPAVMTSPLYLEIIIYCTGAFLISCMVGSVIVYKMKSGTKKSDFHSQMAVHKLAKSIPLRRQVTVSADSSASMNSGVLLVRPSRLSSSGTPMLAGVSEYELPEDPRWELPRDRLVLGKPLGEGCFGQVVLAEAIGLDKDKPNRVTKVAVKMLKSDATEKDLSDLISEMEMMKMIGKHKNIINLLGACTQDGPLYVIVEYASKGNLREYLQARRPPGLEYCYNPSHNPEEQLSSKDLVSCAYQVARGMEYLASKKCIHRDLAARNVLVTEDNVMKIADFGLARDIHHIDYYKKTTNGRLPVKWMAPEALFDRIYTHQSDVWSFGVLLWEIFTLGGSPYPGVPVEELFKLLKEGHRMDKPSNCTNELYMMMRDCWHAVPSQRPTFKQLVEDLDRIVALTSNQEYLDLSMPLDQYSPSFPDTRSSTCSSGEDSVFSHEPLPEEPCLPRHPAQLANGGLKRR

[4] = biological target: Cyclin-dependent kinase 1/cyclin B1 (Homo sapiens) (UniProt P06493+P14635); assay: Inhibition of CDC2/cyclinB1 (unknown origin) at 10 uM using FAM-labelled peptide as substrate pre-incubated for 10 mins followed by substrate addition by mobility shift assay relative to control; type: protein-complex assay
[5] = tested on: HCC827; assay: Antiproliferative activity against human HCC827 cells assessed as inhibition of cell growth at 10 uM incubated for 48 hrs by MTT assay relative to control; type: functional; details: HCC827, 48 h
[6] = Induction of apoptosis in gefitinib-insensitive human HCC827GR cells assessed as late apoptotic cells at 2.5 uM measured after 24 hrs by Annexin-V/propidium iodide staining-based flow cytometric analysis (reference value: 1.5%); type: functional
[7] = Induction of apoptosis in gefitinib-insensitive human HCC827GR cells assessed as viable cells at 5 uM measured after 24 hrs by Annexin-V/propidium iodide staining-based flow cytometric analysis (reference value: 90.8%); type: functional; details: read-out: Activity
[8] = biological target: Fibroblast growth factor receptor 3 (Homo sapiens) (UniProt P22607); assay: Inhibition of N-terminal GST tagged human FGFR3 cytoplasmic domain (436 to 806 AA) expressed in baculovirus at 10 uM using FAM-labelled peptide as substrate pre-incubated for 10 mins followed by substrate addition by mobility shift assay relative to control
[9] = biological target: Inhibitor of nuclear factor kappa-B kinase subunit beta (Homo sapiens) (UniProt O14920); assay: Inhibition of N-terminal GST tagged truncated human IKKbeta (1 to 662 AA) expressed in baculovirus at 10 uM using FAM-labelled peptide as substrate pre-incubated for 10 mins followed by substrate addition by mobility shift assay relative to control
[10] = Volume of distribution in Sprague-Dawley rat at 30 mg/kg, po measured upto 24 hrs by UPLC-MS/MS; type: ADME, organism-based; details: in vivo
[11] = Induction of apoptosis in gefitinib-insensitive human HCC827GR cells assessed as necrotic cells at 10 uM measured after 24 hrs by Annexin-V/propidium iodide staining-based flow cytometric analysis (reference value: 5.8%); type: functional
[12] = biological target: T2, Fibroblast growth factor receptor 1; assay: Inhibition of FGFR1 in gefitinib-insensitive human HCC827GR cells assessed as reduction in FGF-induced FGFR1 phosphorylation upto 10 uM measured after 2 hrs by western blot analysis
Target sequence in this assay (P11362 22-822 limits assumed): as above

[13] = biological target: Cyclin-dependent kinase 5/CDK5 activator 1 (Homo sapiens) (UniProt Q00535+Q15078); assay: Inhibition of CDK5/p35 (unknown origin) at 10 uM using FAM-labelled peptide as substrate pre-incubated for 10 mins followed by substrate addition by mobility shift assay relative to control; type: protein-complex assay
[14] = biological target: Platelet-derived growth factor receptor alpha (Homo sapiens) (UniProt P16234); assay: Inhibition of N-terminal GST tagged human PDGFRalpha cytoplasmic domain (550 to 1089 AA) expressed in baculovirus at 10 uM using FAM-labelled peptide as substrate pre-incubated for 10 mins followed by substrate addition by mobility shift assay relative to control
[15] = biological target: RAC-alpha serine/threonine-protein kinase (Homo sapiens) (UniProt P31749); assay: Inhibition of N-terminal GST tagged human AKT1 catalytic domain (104 to 480 AA) expressed in baculovirus at 10 uM using FAM-labelled peptide as substrate pre-incubated for 10 mins followed by substrate addition by mobility shift assay relative to control
[16] = tested on: NCI-H226; assay: Antiproliferative activity against human NCI-H226 cells assessed as inhibition of cell growth at 10 uM incubated for 48 hrs by MTT assay relative to control; type: functional; details: NCI-H226, 48 h
[17] = tested on: NCI-H226; assay: Induction of apoptosis in human NCI-H226 cells assessed as necrotic cells at 5 uM measured after 24 hrs by Annexin-V/propidium iodide staining-based flow cytometric analysis (reference value: 3%); type: functional
[18] = biological target: Fibroblast growth factor receptor 2 (Homo sapiens) (UniProt P21802); assay: Inhibition of N-terminal GST tagged human FGFR2 cytoplasmic domain (399 to 821 AA) expressed in baculovirus at 10 uM using FAM-labelled peptide as substrate pre-incubated for 10 mins followed by substrate addition by mobility shift assay relative to control
[19] = biological target: T1, Epidermal growth factor receptor; assay: Inhibition of EGF-induced EGFR phosphorylation in serum-starved human HCC827 cells upto 10 uM incubated for 1 hr by Western blot analysis; type: cell-based
[20] = biological target: RAC-beta serine/threonine-protein kinase (Homo sapiens) (UniProt P31751); assay: Inhibition of N-terminal GST tagged human AKT2 catalytic domain (120 to 481 AA) expressed in baculovirus at 10 uM using FAM-labelled peptide as substrate pre-incubated for 10 mins followed by substrate addition by mobility shift assay relative to control
[21] = AUC (0 to infinity) in Sprague-Dawley rat at 30 mg/kg, po measured upto 24 hrs by UPLC-MS/MS; type: ADME, organism-based; design: dose 30 mg/kg, route oral, time infinity; details: in vivo
[22] = biological target: T2, Fibroblast growth factor receptor 1; assay: Inhibition of N-terminal GST-tagged human FGFR1 cytoplasmic domain (398-822 AA) expressed in baculovirus using FAM-labelled peptide as substrate pre-incubated for 10 mins followed by substrate addition by mobility shift assay
Target sequence in this assay (P11362 whole entry): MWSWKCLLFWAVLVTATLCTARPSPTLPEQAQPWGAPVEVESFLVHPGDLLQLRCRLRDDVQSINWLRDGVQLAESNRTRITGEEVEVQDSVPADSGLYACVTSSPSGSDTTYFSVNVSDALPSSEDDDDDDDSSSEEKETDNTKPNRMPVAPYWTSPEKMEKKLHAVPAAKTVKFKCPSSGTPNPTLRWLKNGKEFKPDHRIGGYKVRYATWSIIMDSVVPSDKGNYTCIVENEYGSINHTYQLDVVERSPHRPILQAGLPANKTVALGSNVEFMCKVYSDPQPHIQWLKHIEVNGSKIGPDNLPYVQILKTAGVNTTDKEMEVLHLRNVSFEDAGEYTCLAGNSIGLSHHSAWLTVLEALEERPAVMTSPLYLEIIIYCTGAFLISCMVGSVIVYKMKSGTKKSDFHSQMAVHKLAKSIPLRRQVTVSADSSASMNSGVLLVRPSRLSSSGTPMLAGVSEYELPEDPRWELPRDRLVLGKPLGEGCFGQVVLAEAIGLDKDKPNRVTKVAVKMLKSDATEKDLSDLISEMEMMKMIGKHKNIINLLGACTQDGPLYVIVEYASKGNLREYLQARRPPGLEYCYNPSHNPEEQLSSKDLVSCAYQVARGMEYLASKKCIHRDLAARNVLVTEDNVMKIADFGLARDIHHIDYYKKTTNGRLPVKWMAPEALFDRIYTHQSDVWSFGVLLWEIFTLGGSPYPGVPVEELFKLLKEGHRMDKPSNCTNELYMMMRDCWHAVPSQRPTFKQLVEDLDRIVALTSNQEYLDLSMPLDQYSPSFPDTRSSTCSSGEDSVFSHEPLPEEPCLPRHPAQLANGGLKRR

[23] = tested on: NCI-H226; assay: Induction of apoptosis in human NCI-H226 cells assessed as viable cells at 1 uM measured after 24 hrs by Annexin-V/propidium iodide staining-based flow cytometric analysis (reference value: 93.4%); type: functional; details: NCI-H226, 24 h, read-out: Activity
[24] = tested on: NCI-H226; assay: Induction of cell cycle arrest in human NCI-H226 cells assessed as accumulation of cells at G1 measured after 24 hrs by flow cytometry; type: functional, cell-based
[25] = biological target: T2, Fibroblast growth factor receptor 1; assay: Inhibition of N-terminal GST-tagged human FGFR1 cytoplasmic domain (398-822 AA) expressed in baculovirus at 10 uM using FAM-labelled peptide as substrate pre-incubated for 10 mins followed by substrate addition by mobility shift assay relative to control
Target sequence in this assay (P11362 22-822 limits assumed): as the sequence (P11362 22-822 limits assumed) above

[26] = biological target: Wee1-like protein kinase (Homo sapiens) (UniProt P30291); assay: Inhibition of N-terminal GST tagged human WEE1 catalytic domain (215 to 646 AA) expressed in baculovirus at 10 uM using FAM-labelled peptide as substrate pre-incubated for 10 mins followed by substrate addition by mobility shift assay relative to control
[27] = Induction of apoptosis in gefitinib-insensitive human HCC827GR cells assessed as viable cells at 2.5 uM measured after 24 hrs by Annexin-V/propidium iodide staining-based flow cytometric analysis (reference value: 90.8%); type: functional; details: read-out: Activity
[28] = Induction of apoptosis in gefitinib-insensitive human HCC827GR cells assessed as necrotic cells at 5 uM measured after 24 hrs by Annexin-V/propidium iodide staining-based flow cytometric analysis (reference value: 5.8%); type: functional

T1 sequence (P00533 whole entry): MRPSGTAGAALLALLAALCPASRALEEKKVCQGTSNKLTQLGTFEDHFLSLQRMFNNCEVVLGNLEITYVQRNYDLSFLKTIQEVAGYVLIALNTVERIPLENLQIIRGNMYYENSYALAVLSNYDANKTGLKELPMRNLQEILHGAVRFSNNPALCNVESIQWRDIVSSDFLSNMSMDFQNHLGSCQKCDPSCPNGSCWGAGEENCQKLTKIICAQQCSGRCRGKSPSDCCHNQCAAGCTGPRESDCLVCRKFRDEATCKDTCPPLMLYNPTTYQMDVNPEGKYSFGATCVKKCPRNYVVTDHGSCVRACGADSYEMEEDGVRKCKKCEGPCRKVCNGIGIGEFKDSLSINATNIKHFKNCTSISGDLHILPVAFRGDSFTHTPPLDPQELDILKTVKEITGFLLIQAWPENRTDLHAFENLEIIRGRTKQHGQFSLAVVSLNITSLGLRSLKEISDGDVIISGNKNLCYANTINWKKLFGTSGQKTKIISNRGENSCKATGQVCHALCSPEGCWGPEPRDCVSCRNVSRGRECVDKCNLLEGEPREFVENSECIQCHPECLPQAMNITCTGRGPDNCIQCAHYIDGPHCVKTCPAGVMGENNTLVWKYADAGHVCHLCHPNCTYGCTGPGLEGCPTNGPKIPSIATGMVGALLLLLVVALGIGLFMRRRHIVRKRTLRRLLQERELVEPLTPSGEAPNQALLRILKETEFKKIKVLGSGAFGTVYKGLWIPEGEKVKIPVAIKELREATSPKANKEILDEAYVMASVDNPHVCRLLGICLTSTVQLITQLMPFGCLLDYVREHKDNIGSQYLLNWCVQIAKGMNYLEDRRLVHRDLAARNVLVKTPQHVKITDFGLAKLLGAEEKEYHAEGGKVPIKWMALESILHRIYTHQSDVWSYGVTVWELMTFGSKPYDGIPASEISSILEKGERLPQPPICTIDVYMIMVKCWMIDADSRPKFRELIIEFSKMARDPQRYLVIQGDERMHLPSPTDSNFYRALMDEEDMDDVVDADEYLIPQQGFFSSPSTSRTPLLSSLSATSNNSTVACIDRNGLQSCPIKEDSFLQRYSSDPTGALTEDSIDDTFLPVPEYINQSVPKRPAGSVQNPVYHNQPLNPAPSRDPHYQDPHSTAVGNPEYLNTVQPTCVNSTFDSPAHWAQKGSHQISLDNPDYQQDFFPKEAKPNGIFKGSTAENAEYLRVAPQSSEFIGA
Chain of Cyclin-dependent kinase 5/CDK5 activator 1 (Homo sapiens) (Q00535 whole entry, the tested form may be a part): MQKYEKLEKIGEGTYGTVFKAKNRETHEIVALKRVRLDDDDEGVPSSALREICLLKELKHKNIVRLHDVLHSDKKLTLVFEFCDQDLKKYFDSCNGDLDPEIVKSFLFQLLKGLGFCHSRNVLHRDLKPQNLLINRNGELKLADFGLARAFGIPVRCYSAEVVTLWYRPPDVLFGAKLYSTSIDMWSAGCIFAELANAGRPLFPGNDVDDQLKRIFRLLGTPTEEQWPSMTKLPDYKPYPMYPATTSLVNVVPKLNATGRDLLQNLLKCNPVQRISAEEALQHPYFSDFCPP
Chain of Cyclin-dependent kinase 5/CDK5 activator 1 (Homo sapiens) (Q15078 99-307 partner limits assumed): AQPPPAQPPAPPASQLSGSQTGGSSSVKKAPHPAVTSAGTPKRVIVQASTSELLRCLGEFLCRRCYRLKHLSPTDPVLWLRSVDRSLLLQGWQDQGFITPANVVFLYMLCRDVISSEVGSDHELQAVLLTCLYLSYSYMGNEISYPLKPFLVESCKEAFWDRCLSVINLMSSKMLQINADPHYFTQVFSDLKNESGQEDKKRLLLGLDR
Chain of Platelet-derived growth factor receptor alpha (Homo sapiens) (P16234 whole entry, the tested form may be a part): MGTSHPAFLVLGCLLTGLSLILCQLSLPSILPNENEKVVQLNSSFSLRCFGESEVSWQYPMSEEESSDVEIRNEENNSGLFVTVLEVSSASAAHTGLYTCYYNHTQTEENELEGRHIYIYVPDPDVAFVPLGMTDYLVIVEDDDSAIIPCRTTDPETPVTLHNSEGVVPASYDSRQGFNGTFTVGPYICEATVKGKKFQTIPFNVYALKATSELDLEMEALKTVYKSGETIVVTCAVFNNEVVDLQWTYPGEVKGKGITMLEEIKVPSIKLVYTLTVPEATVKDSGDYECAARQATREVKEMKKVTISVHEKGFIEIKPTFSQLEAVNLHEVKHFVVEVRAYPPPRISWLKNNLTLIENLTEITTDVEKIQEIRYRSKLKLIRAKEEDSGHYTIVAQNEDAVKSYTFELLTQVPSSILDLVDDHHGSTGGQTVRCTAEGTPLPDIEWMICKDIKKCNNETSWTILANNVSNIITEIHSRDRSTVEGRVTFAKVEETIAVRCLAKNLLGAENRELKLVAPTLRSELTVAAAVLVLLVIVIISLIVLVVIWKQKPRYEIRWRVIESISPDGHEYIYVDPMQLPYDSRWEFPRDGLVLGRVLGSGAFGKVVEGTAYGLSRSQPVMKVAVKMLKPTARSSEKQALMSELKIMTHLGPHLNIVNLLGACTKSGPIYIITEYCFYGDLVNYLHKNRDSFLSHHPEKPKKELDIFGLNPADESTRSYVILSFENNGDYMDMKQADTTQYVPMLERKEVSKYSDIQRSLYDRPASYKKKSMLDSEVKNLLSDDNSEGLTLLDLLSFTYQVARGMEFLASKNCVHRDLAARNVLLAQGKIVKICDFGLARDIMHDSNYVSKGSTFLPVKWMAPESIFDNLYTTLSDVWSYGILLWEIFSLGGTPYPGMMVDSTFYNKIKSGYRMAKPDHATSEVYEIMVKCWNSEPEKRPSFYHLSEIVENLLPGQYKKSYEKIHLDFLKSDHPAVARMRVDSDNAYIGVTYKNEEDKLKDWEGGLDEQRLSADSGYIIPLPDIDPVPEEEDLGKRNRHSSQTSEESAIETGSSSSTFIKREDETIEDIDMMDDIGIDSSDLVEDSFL
Chain of RAC-beta serine/threonine-protein kinase (Homo sapiens) (P31751 whole entry, the tested form may be a part): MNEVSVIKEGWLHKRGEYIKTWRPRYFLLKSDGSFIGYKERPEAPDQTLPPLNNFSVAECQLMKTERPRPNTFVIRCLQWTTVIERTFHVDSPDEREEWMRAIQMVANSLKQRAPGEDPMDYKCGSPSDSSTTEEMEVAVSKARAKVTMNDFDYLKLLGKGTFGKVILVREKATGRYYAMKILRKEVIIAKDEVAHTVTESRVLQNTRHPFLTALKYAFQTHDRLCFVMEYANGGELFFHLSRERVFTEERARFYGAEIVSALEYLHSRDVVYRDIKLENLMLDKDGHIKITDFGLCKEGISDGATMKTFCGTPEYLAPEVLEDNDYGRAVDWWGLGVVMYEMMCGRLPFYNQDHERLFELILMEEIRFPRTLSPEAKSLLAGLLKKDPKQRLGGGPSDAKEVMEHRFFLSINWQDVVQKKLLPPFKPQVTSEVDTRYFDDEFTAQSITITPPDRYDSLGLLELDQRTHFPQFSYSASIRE

COc1ccc(OC)c(Nc2cc(NC(=O)Nc3c(Cl)cccc3Cl)ncn2)c1
inhibition at 10 µM [1]: 95% | inhibition [2]: Active | inhibition [3]: 85.2% | inhibition [4]: -9.78% | inhibition at 10 µM [5]: 94% | Activity [6]: 13.5% | viability at 5 µM [7]: 68.9% | inhibition [8]: 15.8% | inhibition [9]: -0.73% | Vd [10]: 0.03 L/kg | Activity [11]: 5.4% | inhibition [12]: Active | inhibition [13]: -2.81% | inhibition [14]: 48.1% | inhibition [15]: 19.4% | inhibition at 10 µM [16]: 81.7% | Activity [17]: 5.2% | inhibition [18]: 82.5% | inhibition [19]: Active | inhibition [20]: 12.7% | AUC(0-inf) [21]: 13000 ng·h/mL | IC50 [22]: 808 nM | viability at 1 µM [23]: 87.7% | Activity [24]: Active | inhibition [25]: 88.5% | inhibition [26]: 28% | viability at 2.5 µM [27]: 79.5% | Activity [28]: 4.1%
